Data taken from patent US20240181093A1 (ADENOBIO N.V, priority 2012, published 2024).
Where “and” joins values, the source holds several entries; their conditions need not be identical. Equal values may be shown once. Marks after values point to notes of the source that are not given here.

Legend:
[1] = test system: coronary hyperaemia; details: cited from earlier work
[2] = test system: patients; details: cited from earlier work
[3] = test system: Left anterior descending coronary artery (LAD); experiment: Transthoracic doppler echocardiography (TTDE) flow velocity measurements at rest and under pharmacologic stress; format: in vivo, human; details: for Average Optimal Effect Duration: combined with adenosine bolus
Description: The value of absolute coronary blood flow (CBF) may be substituted by the value of CBF velocity (peak and mean velocities). […] Given that blood flow=velocity flow×cross section, if cross section is constant, velocity variations reflect blood flow variations.
TTDE is a non invasive approach conducted under the same conditions as for thallium or technetium scintigraphy (intravenous injection) and another way to study Coronary Flow Reserve (CFR).

[4] = bolus independently of the patient's weight
[5] = Table 1: same coronary patient, 5 studies, second data of cell, adenosine 140 μg/kg/min 2 minute infusion, combination 30 second IV bolus

For `Nc1nc(N/N=C/C2CCCCC2)nc2c1ncn2[C@@H]1O[C@H](CO)[C@@H](O)[C@H]1O` [binodenoson], the duration of action ([1]; in vivo) is listed as 10 ± 6 min.
For `CNC(=O)c1cnn(-c2nc(N)c3ncn([C@@H]4O[C@H](CO)[C@@H](O)[C@H]4O)c3n2)c1` [regadenoson], the “side effects as compared to the reference drug Adenoscan (adenosine)” value ([2]; in vivo) is given as “increase in dyspnea, headache and gastrointestinal disorders”, the “efficacy and tolerance at 500 μg” value [1, 4] is given as “same efficacy as 400 μg but tolerance is worst” and the “efficacy threshold dose in many but not all patients” value [1, 4] is given as 300 µg. The “dose efficient in all patients” value ([1]; bolus independently of the patient's weight, marketed dose) was 400 µg and the “time after which coronary hyperaemia is induced” value ([1]; in vivo) was 30 s.
In the case of `Nc1ncnc2c1ncn2[C@@H]1O[C@H](CO)[C@@H](O)[C@H]1O` [Adenosine, adenosine], the “DOE = Duration of optimal effect” value ([3]; Table 1: same coronary patient) is reported as 60 to 90 s, the “RBL = Return to base line” value ([3]; Table 1: same coronary patient) is reported as 40 to 50 s and the “TTP = Time to peak” value ([3]; Table 1: same coronary patient) is reported as 40 to 50 s. For the same compound, the “MV = Mean Velocity, under stress conditions” value [3, 5] was 78 cm/s and 80 cm/s and 82 cm/s and 75 cm/s and 74 cm/s, the “PV = Peak Velocity, under stress conditions” value [3, 5] was 108 cm/sec and 96 cm/sec and 98 cm/sec and 105 cm/sec and the “CR (based on MV)” value ([3]; Table 2: three different coronary patients, one line per patient, listed as St. Adenosine) was 2.12 and 2.36 and 2.88. For the same compound, the “MV (mean velocity), under stress conditions” value ([3]; Table 2: three different coronary patients, one line per patient, second data of cell, St. adenosine 140 μg/kg/min infusion about 2 minutes, combination IV 30 second bolus) was 50 cm/s and 33 cm/s and 75 cm/s, the “adverse reaction: flushing” value ([2]; adenosine infusion, most frequently reported) was 44% and the “Other side effects, incidence” value ([2]; adenosine infusion) was “below 10%”. The “adverse reaction: chest pain or chest discomfort” value ([2]; adenosine infusion) was 40%, the “adverse reaction: dyspnoea” value ([2]; adenosine infusion) was 28% and the “adverse reaction: gastrointestinal discomfort” value ([2]; adenosine infusion) was 13%. For the same compound, the “adverse reaction: headache” value ([2]; adenosine infusion) was 18%, the “adverse reaction: throat or neck or jaw discomfort” value ([2]; adenosine infusion) was 15% and the “time to near-maximal vasodilatation, on average” value ([1]; infusion) was 60 s.
For `OCCN(CCO)c1nc(N2CCCCC2)c2nc(N(CCO)CCO)nc(N3CCCCC3)c2n1` [Dipyridamole, dipyridamole], the “Average Optimal Effect Duration” value ([3]; Dipyridamole dose 9 mg, regardless of the dose of adenosine) was 30 to 40 s, the “Average Optimal Effect Duration” value ([3]; Dipyridamole dose 10 mg, regardless of the dose of adenosine) was 40 to 50 s and the “Average Optimal Effect Duration” value ([3]; Dipyridamole dose 12 mg, regardless of the dose of adenosine) was 40 to 90 s. The “Average Optimal Effect Duration” value ([3]; Dipyridamole dose 14 mg, prolongs side effects when they occur) was 60-100** sec, the “coronary effect and side effect” value ([3]; alone as a 12 mg or 14 mg bolus) was “no coronary effect and no side effect” and the “coronary effect or symptom” value ([3]; injected as a bolus alone at the dose of 12 mg (n=5 patients)) was “does not induce any significant coronary effect or symptom”. The “duration of peak of activity” value ([1]; in vivo) was 20 to 30 min.
